Format: physicochemical
Procedure: A 1:1 mixture of Form I and Form II was suspended in isopropanol and agitated with a magnetic stirrer for 18 h in a tightly sealed glass […]. […] Subsequently the sample was filtered with a micro glass filter funnel (G3), dried and evacuated.

thermodynamic stability of the modification: thermodynamically stable form
SMILES: COc1ccccc1OCCNCC(O)COc1cccc2[nH]c3ccccc3c12 (racemic) [Form I, (±)1-(4-carbazolyloxy)-3-[2-(2-methoxyphenoxy)ethylamno]-2-propanole]

Source: patent US6730326B2, “Thermodynamically stable modification of 1-(4-carbazolyl-oxy-3[2-(2-methoxyphenoxy)-ethylamino]-2-propanol process for its preparation and pharmaceutical compositions containing it” (Roche Diagnostics GmbH, priority 1997, dated 2004)
